{"source": "patent EP4144350B1", "about": "“TREATMENT OR PREVENTION OF VASCULAR MALFORMATION” (Universitätsmedizin Greifswald, priority 2021, dated 2023)", "format_in_all_cases": "cell-based, human", "key": {"[1]": {"tested_on": "CCM3^-/- CI-huVECs in co-culture with CCM3^+/+ CI-huVECs", "assay": "Spike-in co-culture assay / apoptosis compound library screening: CCM3 knockout allele frequency by amplicon deep sequencing", "protocol": "Clonally expanded CI-huVEC lines with biallelic loss-of-function variants in the first coding exon of CCM3 have been described before or were established according to a published CRISPR/Cas9 genome editing protocol. Blood outgrowth endothelial cells (BOECs) were cultured in EGM-2 medium (Lonza, Basel, Switzerland) supplemented with 18 % FCS. With the approval of the local ethics committee (University Medicine Greifswald, Germany; No.: BB 047/14a), CCM1^-/- BOECs had been established previously from CCM1^+/- BOECs of a CCM1 mutation carrier with CRISPR/Cas9 genome editing. Mutant and wild-type ECs were co-cultured in 96-well plates under standard culture conditions with the indicated mutant-to-wild-type ratios. 2500 cells were seeded per well.\nAn apoptosis compound library with 189 small molecules that target apoptosis, survival and proliferation was used in a high throughput screening approach (HY-L003[HY-LD-000001651]; MedChem Express, Monmouth Junction, NJ, USA). Co-cultures were treated with 10 µM of each substrate for six days. Compounds were added 5 h and 3 days after cell seeding.\nNSC59984 (IUPAC: (2E)-1-(4-Methyl-1-piperazinyl)-3-(5-nitro-2-furyl)-2-propen-1-one, HY19726, MedChem Express), was used for individual experiments with the indicated concentrations.\nThe fraction of mutant alleles in co-culture were analysed by amplicon deep sequencing or T7EI cleavage assay. In brief, genomic target regions were first amplified by PCR. For T7E1 cleavage assays, heteroduplexes were formed and digested with T7EI enzyme (New England Biolabs, Frankfurt am Main, Germany). Cleavage products were visualised by gel electrophoresis and analysed with the Image Lab software (v6.0, Bio-Rad, Hercules, CA, USA). For NGS analysis, sequencing adapters and individual barcodes were introduced in a second round of PCR [7]. Sequencing libraries were pooled and sequenced on a MiSeq instrument with 2 x 150 cycles (Illumina, San Diego, CA, USA). The data were analysed with the SeqNext software (JSI Medical Systems, Ettenheim, Germany)."}, "[2]": {"tested_on": "CCM3^-/- cells in fusion organoids", "assay": "hiPSC-derived vascular fusion organoids, fluorescence imaging", "settings": "10 µM, continuous culture, imaged day 5, 7, 10", "protocol": "hiPSCs were differentiated into vascular organoids according to the protocol of Wimmer and colleagues. Briefly, 800,000 hiPSCs were seeded in ultra-low attachment 6-well plates (Corning) in aggregation medium for 2 days until aggregates had formed. On day 0, mesodermal induction was initiated with CHIR99021 (Tocris Bioscience, Bristol, United Kingdom) and BMP-4 (Miltenyi Biotec) in N2B27 medium. Supplementation of VEGF-A (PeproTech, Inc., Rocky Hill, NJ, USA) and forskolin (Sigma-Aldrich) on day 3 induced vascular differentiation. On day 5, vascular aggregates were embedded in a collagen I-Matrigel matrix. VEGF-A, FGF-2 (Miltenyi Biotec), and FBS (Thermo Fisher Scientific) enriched StemPro-34 medium (Thermo Fisher Scientific) was added for vessel sprouting. Vascular network extraction was performed on day 10."}, "CCM3^-/- CI-huVECs": {"tested_on": "CCM3^-/- CI-huVECs", "assay": "CyQuant cell proliferation assay combined with mutant allele frequencies, co-culture (mutant cells)", "settings": "six days", "protocol": "Clonally expanded CI-huVEC lines with biallelic loss-of-function variants in the first coding exon of CCM3 have been described before or were established according to a published CRISPR/Cas9 genome editing protocol. Blood outgrowth endothelial cells (BOECs) were cultured in EGM-2 medium (Lonza, Basel, Switzerland) supplemented with 18 % FCS. With the approval of the local ethics committee (University Medicine Greifswald, Germany; No.: BB 047/14a), CCM1^-/- BOECs had been established previously from CCM1^+/- BOECs of a CCM1 mutation carrier with CRISPR/Cas9 genome editing. Mutant and wild-type ECs were co-cultured in 96-well plates under standard culture conditions with the indicated mutant-to-wild-type ratios. 2500 cells were seeded per well. The proliferation rate of mutant and wild-type ECs in monoculture was quantified with the CyQuant® Cell Proliferation Assay Kit (C7026, Thermo Fisher Scientific). To discriminate the proliferation rates of CCM3^+/+ and CCM3^-/- CI-huVEC in co-culture, the CyQuant® Cell Proliferation Assay results were combined with mutant allele frequencies that had been determined by amplicon deep sequencing. To analyse their sensitivity to apoptosis, mutant and wild-type ECs were seeded in 96-well plates with 15.000 cells per well, and treated with staurosporine ([…], Sigma-Aldrich, St. Louis, MO, USA) 24 h later. The Caspase-3 DEVD-R110 Fluorometric HTS Assay Kit (30009, Biotium, Fremont, CA, USA), the Cell Meter^TM Caspase 8 Activity Apoptosis Assay Kit (22798, AAT Bioquest, Sunnyvale, CA, USA), and the Cell Meter^TM Caspase 9 Activity Apoptosis Assay Kit (22799, AAT Bioquest) were used following the manufacturer's instructions."}}}
{"smiles": "CN1CCN(C(=O)/C=C/c2ccc([N+](=O)[O-])o2)CC1", "note": "[NSC59984, (E)-1-(4-methylpiperazin-1-yl)-3-(5-nitrofuran-2yl)prop-2-en-1-one]", "values": [{"measurement": "Mutant EC expansion at high spike-in ratios", "setting": "[1]; 10 µM (Fig. 20)", "result": "blocked mutant EC expansion even at high spike-in ratios but did not decrease mutant allele frequencies"}, {"measurement": "Clonal expansion of mutant ECs after end of treatment", "setting": "[1]; 10 µM for six days, then seven additional days without treatment (Fig. 21)", "result": "still efficiently blocked after the end of NSC59984 treatment"}, {"measurement": "Knockout allele frequencies", "setting": "[1]; 10 µM of each compound, six days, added 5 h and 3 days after seeding, DMSO-treated co-culture controls 33.5 %", "result": 10.2, "unit": "%"}, {"measurement": "Mutant EC expansion after pretreatment of CCM3^-/- CI-huVECs before co-culture", "setting": "[1]; 6 days co-culture without additional treatment (Fig. 22)", "result": "completely prevented mutant EC expansion"}, {"measurement": "Clonal expansion of CCM3^-/- CI-huVECs in co-culture", "setting": "[1]; different concentrations (Fig. 18)", "result": "blocked the clonal expansion of CCM3^-/- CI-huVECs in a concentration-dependent manner"}, {"measurement": "Proliferation of CCM3^-/- cells in fusion organoids", "setting": "[2]", "result": "inhibited the proliferation of CCM3^-/- cells in fusion organoids"}, {"measurement": "Relative proliferation rate of CCM3^-/- CI-huVECs", "setting": "CCM3^-/- CI-huVECs; 1 µM", "result": 4632, "unit": "%"}, {"measurement": "Relative proliferation rate of CCM3^-/- CI-huVECs", "setting": "CCM3^-/- CI-huVECs; 5 µM", "result": 1671, "unit": "%"}, {"measurement": "Relative proliferation rate of CCM3^-/- CI-huVECs", "setting": "CCM3^-/- CI-huVECs; 10 µM", "result": 419, "unit": "%"}]}
